# Measurements taken from PMC5218480 (PLoS ONE, 2017).
# Tested on: MV-4-11 cells
# Test: Gene expression microarray analysis (Affymetrix PrimeView) and GSEA
# Format: cell-based, human
# Parameters: RFU PODN (11730768_x_at) / Fold change /veh PODN (11730768_x_at) / RFU LINC00158 (11744669_a_at) / Fold change /veh LINC00158 (11744669_a_at) / RFU DUSP10 (11751237_a_at) / Fold change /veh DUSP10 (11751237_a_at) / RFU ID3 (11757404_x_at) / Fold change /veh ID3 (11757404_x_at) / RFU PLEKHG5 (11737974_s_at) / Fold change /veh PLEKHG5 (11737974_s_at) / RFU LRRC4B (11730491_at) / Fold change /veh LRRC4B (11730491_at) / RFU GIMAP4 (11747438_a_at) / Fold change /veh GIMAP4 (11747438_a_at) / RFU KRT8 (11758183_x_at) / Fold change /veh KRT8 (11758183_x_at) / RFU CNN1 (11734310_a_at) / Fold change /veh CNN1 (11734310_a_at) / RFU VPS37D (11726825_at) / Fold change /veh VPS37D (11726825_at) / RFU C10orf10 (11716522_x_at) / Fold change /veh C10orf10 (11716522_x_at) / RFU KIR2DL2 /// KIR2DL4 /// KIR2DL5A /// KIR2DL5B /// KIR2DS1 /// KIR2DS2 /// KIR2DS3 /// KIR2DS4 /// KIR3DL3 /// KIR3DL3 /// KIR3DS1 (11738374_at) / Fold change /veh KIR2DL2 /// KIR2DL4 /// KIR2DL5A /// KIR2DL5B /// KIR2DS1 /// KIR2DS2 /// KIR2DS3 /// KIR2DS4 /// KIR3DL3 /// KIR3DL3 /// KIR3DS1 (11738374_at) / RFU C1QL1 (11718748_at) / Fold change /veh C1QL1 (11718748_at) / RFU TMPRSS4 (11747572_a_at) / Fold change /veh TMPRSS4 (11747572_a_at) / RFU HAMP (11756126_x_at) / Fold change /veh HAMP (11756126_x_at) / RFU RNFT2 (11725882_a_at) / Fold change /veh RNFT2 (11725882_a_at) / RFU NR4A2 (11747474_a_at) / Fold change /veh NR4A2 (11747474_a_at) / RFU ABCC12 (11746883_a_at) / Fold change /veh ABCC12 (11746883_a_at) / RFU TMEM136 (11760407_x_at) / Fold change /veh TMEM136 (11760407_x_at) / RFU CLDN22 /// WWC2 (11732394_at) / Fold change /veh CLDN22 /// WWC2 (11732394_at) / RFU HLA-DPB1 (11760878_x_at) / Fold change /veh HLA-DPB1 (11760878_x_at) / RFU SPINT1 (11716480_a_at) / Fold change /veh SPINT1 (11716480_a_at) / RFU GAP43 (11754022_s_at) / Fold change /veh GAP43 (11754022_s_at) / RFU A4GNT (11735810_at) / Fold change /veh A4GNT (11735810_at) / RFU PRB3 (11715151_x_at) / Fold change /veh PRB3 (11715151_x_at) / RFU TUBB4B (11761932_at) / Fold change /veh TUBB4B (11761932_at) / RFU CAPN14 (11732068_a_at) / Fold change /veh CAPN14 (11732068_a_at) / RFU TMCC2 (11721928_a_at) / Fold change /veh TMCC2 (11721928_a_at) / RFU IRGQ (11745062_a_at) / Fold change /veh IRGQ (11745062_a_at) / RFU FAM174B (11720279_a_at) / Fold change /veh FAM174B (11720279_a_at) / RFU TMPRSS4 (11748680_a_at) / Fold change /veh TMPRSS4 (11748680_a_at) / RFU FAM212B (11763350_a_at) / Fold change /veh FAM212B (11763350_a_at) / RFU PLEKHG5 (11743358_a_at) / Fold change /veh PLEKHG5 (11743358_a_at) / RFU ZSCAN30 (11745921_a_at) / Fold change /veh ZSCAN30 (11745921_a_at) / RFU CMKLR1 (11741424_a_at) / Fold change /veh CMKLR1 (11741424_a_at) / RFU LOC101060620 /// MAPK8IP1 (11723275_at) / Fold change /veh LOC101060620 /// MAPK8IP1 (11723275_at) / RFU SPTSSB (11747773_x_at) / Fold change /veh SPTSSB (11747773_x_at) / RFU PRSS12 (11739890_at) / Fold change /veh PRSS12 (11739890_at) / RFU BIN1 (11741810_x_at) / Fold change /veh BIN1 (11741810_x_at) / RFU WNT11 (11732464_a_at) / Fold change /veh WNT11 (11732464_a_at) / RFU C10orf10 (11716521_a_at) / Fold change /veh C10orf10 (11716521_a_at) / RFU C5orf56 (11738089_at) / Fold change /veh C5orf56 (11738089_at) / RFU CYB561 (11721691_x_at) / Fold change /veh CYB561 (11721691_x_at) / RFU ANKRD19P (11752326_a_at) / Fold change /veh ANKRD19P (11752326_a_at) / RFU OR2T12 /// OR2T33 /// OR2T8 (11738714_s_at) / Fold change /veh OR2T12 /// OR2T33 /// OR2T8 (11738714_s_at) / RFU VCAN (11748164_a_at) / Fold change /veh VCAN (11748164_a_at) / RFU JSRP1 (11732532_at) / Fold change /veh JSRP1 (11732532_at) / RFU KRTAP10-11 (11738290_x_at) / Fold change /veh KRTAP10-11 (11738290_x_at) / RFU MYO3A (11730013_a_at) / Fold change /veh MYO3A (11730013_a_at) / RFU EBF3 (11725865_a_at) / Fold change /veh EBF3 (11725865_a_at) / RFU CAMK2N1 (11719241_x_at) / Fold change /veh CAMK2N1 (11719241_x_at) / RFU C5orf56 (11738088_a_at) / Fold change /veh C5orf56 (11738088_a_at) / RFU OLFML3 (11715873_a_at) / Fold change /veh OLFML3 (11715873_a_at) / RFU LOC100653217 /// NTM (11731650_a_at) / Fold change /veh LOC100653217 /// NTM (11731650_a_at) / RFU MAPK11 (11762145_a_at) / Fold change /veh MAPK11 (11762145_a_at) / RFU FIZ1 (11724087_x_at) / Fold change /veh FIZ1 (11724087_x_at) / RFU OASL (11726364_x_at) / Fold change /veh OASL (11726364_x_at) / RFU SOX15 (11748057_x_at) / Fold change /veh SOX15 (11748057_x_at) / RFU CD79A (11719716_a_at) / Fold change /veh CD79A (11719716_a_at) / RFU HIST1H1D (11736915_at) / Fold change /veh HIST1H1D (11736915_at) / RFU CASKIN2 (11723855_a_at) / Fold change /veh CASKIN2 (11723855_a_at) / RFU LOC730098 (11760151_x_at) / Fold change /veh LOC730098 (11760151_x_at) / RFU OR4N2 (11742367_at) / Fold change /veh OR4N2 (11742367_at) / RFU PRRT2 (11749266_a_at) / Fold change /veh PRRT2 (11749266_a_at) / RFU SNX32 (11753110_a_at) / Fold change /veh SNX32 (11753110_a_at) / RFU CDHR5 (11726645_a_at) / Fold change /veh CDHR5 (11726645_a_at) / RFU RCAN1 (11760418_a_at) / Fold change /veh RCAN1 (11760418_a_at) / RFU FAM167A (11723789_a_at) / Fold change /veh FAM167A (11723789_a_at) / RFU FAM26E (11764081_at) / Fold change /veh FAM26E (11764081_at) / RFU ISYNA1 (11749810_s_at) / Fold change /veh ISYNA1 (11749810_s_at) / RFU ACY1 (11761880_at) / Fold change /veh ACY1 (11761880_at) / RFU 11764098_at / Fold change /veh 11764098_at / RFU SAMD14 (11745864_x_at) / Fold change /veh SAMD14 (11745864_x_at) / RFU NPB (11741838_a_at) / Fold change /veh NPB (11741838_a_at) / RFU TMPRSS6 (11731388_a_at) / Fold change /veh TMPRSS6 (11731388_a_at) / RFU KRTAP10-2 (11738614_at) / Fold change /veh KRTAP10-2 (11738614_at) / RFU ARHGAP8 /// PRR5-ARHGAP8 (11727945_x_at) / Fold change /veh ARHGAP8 /// PRR5-ARHGAP8 (11727945_x_at) / RFU KRTAP5-7 /// NADSYN1 (11734609_at) / Fold change /veh KRTAP5-7 /// NADSYN1 (11734609_at) / RFU RASL12 (11751679_a_at) / Fold change /veh RASL12 (11751679_a_at) / RFU CDKN2B (11736163_a_at) / Fold change /veh CDKN2B (11736163_a_at) / RFU PRF1 (11729649_at) / Fold change /veh PRF1 (11729649_at) / RFU, ZNF638 /// ZNF638-IT1 / Fold change vs veh, ZNF638 /// ZNF638-IT1 / RFU, PANK3 / Fold change vs veh, PANK3 / RFU, SH3YL1 / Fold change vs veh, SH3YL1 / RFU, ZEB2 / Fold change vs veh, ZEB2 / RFU, NRIP1 / Fold change vs veh, NRIP1 / RFU, PTTG1IP / Fold change vs veh, PTTG1IP / RFU, CAPN2 / Fold change vs veh, CAPN2 / RFU, MED14 / Fold change vs veh, MED14 / RFU, SNORA58 / Fold change vs veh, SNORA58 / RFU, C1orf63 / Fold change vs veh, C1orf63 / RFU, LRRFIP1 / Fold change vs veh, LRRFIP1 / RFU, NDUFAF7 / Fold change vs veh, NDUFAF7 / RFU, SLC12A2 / Fold change vs veh, SLC12A2 / RFU, IBTK / Fold change vs veh, IBTK / RFU, ESF1 / Fold change vs veh, ESF1 / Fold change vs veh, TMEM50B / RFU, TAOK1 / Fold change vs veh, TAOK1 / RFU, ACBD3 / Fold change vs veh, ACBD3 / RFU, TMA16 / Fold change vs veh, TMA16 / RFU, RWDD3 / Fold change vs veh, RWDD3 / RFU, BCAT1 / Fold change vs veh, BCAT1 / RFU, EDEM3 / Fold change vs veh, EDEM3 / RFU, TMEM33 / Fold change vs veh, TMEM33 / RFU, WDR75 / Fold change vs veh, WDR75 / RFU, AHCTF1 / Fold change vs veh, AHCTF1 / RFU, TFRC / Fold change vs veh, TFRC / RFU, ZDHHC17 / Fold change vs veh, ZDHHC17 / RFU, NOM1 / Fold change vs veh, NOM1 / RFU, ARL8B / Fold change vs veh, ARL8B / RFU, ZBTB11 / Fold change vs veh, ZBTB11 / RFU, TAMM41 / Fold change vs veh, TAMM41 / RFU, KIAA1704 /// LOC100996395 / Fold change vs veh, KIAA1704 /// LOC100996395 / RFU, ING1 / Fold change vs veh, ING1 / RFU, TRMT61B / Fold change vs veh, TRMT61B / RFU, FUBP3 / Fold change vs veh, FUBP3 / RFU, TP53 / Fold change vs veh, TP53 / RFU, TNKS2 / Fold change vs veh, TNKS2 / RFU, ZFP14 / Fold change vs veh, ZFP14 / RFU, ACTR2 / Fold change vs veh, ACTR2 / RFU, PPP3R1 / Fold change vs veh, PPP3R1 / RFU, PIK3R1 / Fold change vs veh, PIK3R1 / RFU, HNRNPA1 / Fold change vs veh, HNRNPA1 / RFU, RNF170 / Fold change vs veh, RNF170 / RFU, ZNF28 / Fold change vs veh, ZNF28 / RFU, RNGTT / Fold change vs veh, RNGTT / RFU, OGT / Fold change vs veh, OGT / RFU, BRD1 / Fold change vs veh, BRD1 / RFU, MARS / Fold change vs veh, MARS / RFU, ZNF655 / Fold change vs veh, ZNF655 / RFU, FAHD1 / Fold change vs veh, FAHD1 / RFU, BDP1 / Fold change vs veh, BDP1 / RFU, LRRCC1 / Fold change vs veh, LRRCC1 / RFU, ARID1A / Fold change vs veh, ARID1A / RFU, ZNF146 / Fold change vs veh, ZNF146 / RFU, ZNF330 / Fold change vs veh, ZNF330 / RFU, GPN3 / Fold change vs veh, GPN3 / RFU, C9orf123 / Fold change vs veh, C9orf123 / RFU, N4BP2L2 / Fold change vs veh, N4BP2L2 / RFU, ARFIP1 / Fold change vs veh, ARFIP1 / RFU, FAM179B / Fold change vs veh, FAM179B / RFU, BCL10 / Fold change vs veh, BCL10 / RFU, UHRF1BP1L / Fold change vs veh, UHRF1BP1L / RFU, BET1 / Fold change vs veh, BET1 / RFU, CNOT2 / Fold change vs veh, CNOT2 / RFU, ZNF268 / Fold change vs veh, ZNF268 / Fold change vs veh, ZNF507 / RFU, DGCR2 / Fold change vs veh, DGCR2 / RFU, WDSUB1 / Fold change vs veh, WDSUB1 / Fold change vs veh, HSP90B1 /// MIR3652 / RFU, ADSS / Fold change vs veh, ADSS / RFU, GK / Fold change vs veh, GK / RFU, ZNF148 / Fold change vs veh, ZNF148 / RFU, TAF9 / Fold change vs veh, TAF9 / RFU, SLC1A5 / Fold change vs veh, SLC1A5 / RFU, SLMO2 / Fold change vs veh, SLMO2 / RFU, ABCC4 / Fold change vs veh, ABCC4 / RFU, LOC101060439 /// RAP1B / Fold change vs veh, LOC101060439 /// RAP1B / RFU, RFX7 / Fold change vs veh, RFX7 / RFU, GTPBP10 / Fold change vs veh, GTPBP10 / RFU, CNEP1R1 / Fold change vs veh, CNEP1R1 / RFU, BIVM-ERCC5 /// ERCC5 / Fold change vs veh, BIVM-ERCC5 /// ERCC5 / RFU, ILF3 / Fold change vs veh, ILF3 / RFU 11762660_at / Fold change /veh 11762660_at / RFU VCAN (11757783_s_at) / Fold change /veh VCAN (11757783_s_at) / RFU DDX43 (11728927_at) / Fold change /veh DDX43 (11728927_at) / RFU KRT8 (11758188_x_at) / Fold change /veh KRT8 (11758188_x_at) / RFU NKD1 (11759106_at) / Fold change /veh NKD1 (11759106_at) / RFU SRD5A1 (11742802_a_at) / Fold change /veh SRD5A1 (11742802_a_at) / RFU TPSAB1 /// TPSB2 (11721975_s_at) / Fold change /veh TPSAB1 /// TPSB2 (11721975_s_at) / RFU GSTM3 (11746129_a_at) / Fold change /veh GSTM3 (11746129_a_at) / RFU IL23R (11737362_x_at) / Fold change /veh IL23R (11737362_x_at) / RFU TMEM51 (11727254_a_at) / Fold change /veh TMEM51 (11727254_a_at) / RFU PIWIL2 (11732686_x_at) / Fold change /veh PIWIL2 (11732686_x_at) / RFU ORM1 (11744905_x_at) / Fold change /veh ORM1 (11744905_x_at) / RFU CCDC152 (11743942_at) / Fold change /veh CCDC152 (11743942_at) / RFU ECM1 (11717891_a_at) / Fold change /veh ECM1 (11717891_a_at) / RFU IL23R (11748794_a_at) / Fold change /veh IL23R (11748794_a_at) / RFU TNFAIP8L3 (11732012_x_at) / Fold change /veh TNFAIP8L3 (11732012_x_at) / RFU MBOAT4 (11741988_at) / Fold change /veh MBOAT4 (11741988_at) / RFU 11764193_at / Fold change /veh 11764193_at / RFU TMEM53 (11763286_at) / Fold change /veh TMEM53 (11763286_at) / RFU MAGEB2 (11727129_at) / Fold change /veh MAGEB2 (11727129_at) / RFU TMEM200A (11744735_a_at) / Fold change /veh TMEM200A (11744735_a_at) / RFU CCDC152 (11751479_a_at) / Fold change /veh CCDC152 (11751479_a_at) / RFU FAM211A (11726209_a_at) / Fold change /veh FAM211A (11726209_a_at) / RFU RGS16 (11746705_a_at) / Fold change /veh RGS16 (11746705_a_at) / RFU VCAN (11755009_s_at) / Fold change /veh VCAN (11755009_s_at) / RFU RHOB (11743442_s_at) / Fold change /veh RHOB (11743442_s_at) / RFU RGS16 (11720943_a_at) / Fold change /veh RGS16 (11720943_a_at) / RFU RGS16 (11720944_at) / Fold change /veh RGS16 (11720944_at) / RFU, VPS4B / Fold change vs veh, VPS4B / RFU, CREB1 / Fold change vs veh, CREB1 / RFU, DNAJC13 / Fold change vs veh, DNAJC13 / RFU, GNAQ / Fold change vs veh, GNAQ / RFU, CDK5R1 / Fold change vs veh, CDK5R1 / RFU, ZRANB3 / Fold change vs veh, ZRANB3 / RFU, CUL4A / Fold change vs veh, CUL4A / RFU, CCNY / Fold change vs veh, CCNY / RFU, UFL1 / Fold change vs veh, UFL1 / RFU, COG3 / Fold change vs veh, COG3 / RFU, DIAPH2 / Fold change vs veh, DIAPH2 / RFU, SKA2 / Fold change vs veh, SKA2 / RFU, AFF3 / Fold change vs veh, AFF3 / RFU, LMF1 / Fold change vs veh, LMF1 / RFU, IPO11 / Fold change vs veh, IPO11 / RFU, DFFB / Fold change vs veh, DFFB / RFU, FOXP1 / Fold change vs veh, FOXP1 / RFU, CARD8 / Fold change vs veh, CARD8 / RFU, STRN3 / Fold change vs veh, STRN3 / RFU, ADK / Fold change vs veh, ADK / RFU, RASSF2 / Fold change vs veh, RASSF2 / RFU, WIPF1 / Fold change vs veh, WIPF1 / RFU, LARP1B / Fold change vs veh, LARP1B / RFU, RASA1 / Fold change vs veh, RASA1 / RFU, RB1 / Fold change vs veh, RB1 / RFU, PPFIA1 / Fold change vs veh, PPFIA1 / RFU, MAT2A / Fold change vs veh, MAT2A / RFU, CCT5 / Fold change vs veh, CCT5 / RFU, WDR92 / Fold change vs veh, WDR92 / RFU, CUX1 / Fold change vs veh, CUX1 / RFU, TTC7A / Fold change vs veh, TTC7A / RFU, TMEM135 / Fold change vs veh, TMEM135 / RFU, DEPTOR / Fold change vs veh, DEPTOR / RFU, CPM / Fold change vs veh, CPM / RFU, DNAJB6 / Fold change vs veh, DNAJB6 / RFU, CACNA2D3 / Fold change vs veh, CACNA2D3 / RFU, DTX4 / Fold change vs veh, DTX4 / RFU, TFCP2 / Fold change vs veh, TFCP2 / RFU, GMCL1 /// GMCL1P1 / Fold change vs veh, GMCL1 /// GMCL1P1 / RFU, AEBP2 / Fold change vs veh, AEBP2 / RFU, SNHG1 /// SNORD22 /// SNORD25 /// SNORD26 /// SNORD27 /// SNORD28 /// SNORD29 /// SNORD31 / Fold change vs veh, SNHG1 /// SNORD22 /// SNORD25 /// SNORD26 /// SNORD27 /// SNORD28 /// SNORD29 /// SNORD31 / Fold change (Aza/veh), C12orf56 (ProbeSet 11735607_a_at) / Fold change (ACY-1035/veh), C12orf56 (ProbeSet 11735607_a_at) / Fold change (Aza/veh), FGFR1OP (ProbeSet 11751329_s_at) / Fold change (ACY-1035/veh), FGFR1OP (ProbeSet 11751329_s_at) / Fold change (Aza/veh), VPS36 (ProbeSet 11739960_a_at) / Fold change (ACY-1035/veh), VPS36 (ProbeSet 11739960_a_at) / RFU SYPL1 (11715823_x_at) / Fold change /veh SYPL1 (11715823_x_at) / RFU IGFBP7 (11715501_s_at) / Fold change /veh IGFBP7 (11715501_s_at) / RFU REEP3 (11722064_at) / Fold change /veh REEP3 (11722064_at) / RFU IGLL1 (11728026_x_at) / Fold change /veh IGLL1 (11728026_x_at): dose or concentration left out as unconfirmed
# Details: ProbeSet 11718977_a_at; LIST B
structure (smiles),measurement,value
Nc1ccc(-c2cccs2)cc1NC(=O)c1ccc2c(c1)cc(C1CC1)n2CCN1CCOCC1 [ACY-1035],"Fold change vs veh, CAPN2",0.88
